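A five-concentration, 48-hour dose response in 96-well plates underlies each endpoint, interpolated linearly between surrounding concentrations. TGI is the concentration that stops growth completely.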
Key:
Test in all cases: DTP human tumour cell line panel, 48 h
SF-295 CNS = test system: SF-295 CNS
NCI-H460 lung = test system: NCI-H460 lung
LOX IMVI melanoma = test system: LOX IMVI melanoma
SF-268 CNS = test system: SF-268 CNS
OVCAR-5 ovarian = test system: OVCAR-5 ovarian
SN12C renal = test system: SN12C renal
OVCAR-8 ovarian = test system: OVCAR-8 ovarian
BT-549 breast = test system: BT-549 breast
SK-OV-3 ovarian = test system: SK-OV-3 ovarian
T-47D breast = test system: T-47D breast

SMILES	TGI (SF-295 CNS)	TGI (NCI-H460 lung)	TGI (LOX IMVI melanoma)	TGI (SF-268 CNS)	TGI (OVCAR-5 ovarian)	TGI (SN12C renal)	TGI (OVCAR-8 ovarian)	TGI (BT-549 breast)	TGI (SK-OV-3 ovarian)	TGI (T-47D breast)
CCOC(=O)C1(C(=O)OCC)C[C@H]2CON=C2[C@@H]1c1ccc(C(F)(F)F)cc1	> 100 µM	> 100 µM	32.4 µM	> 100 µM	> 100 µM	> 100 µM	> 100 µM	> 100 µM	> 100 µM	94.3 µM
S=C1c2cc(Cl)ccc2NC(=NC2CCCC2)C2CSCN12 (stereo not given)	> 100 µM	> 100 µM	> 100 µM	> 100 µM	> 100 µM	> 100 µM	> 100 µM	> 100 µM	> 100 µM	> 100 µM
Cc1nc2c(=O)[nH]c(=O)nc-2n(CCO)c1C	> 100 µM	> 100 µM	> 100 µM	> 100 µM	> 100 µM	> 100 µM	> 100 µM	> 100 µM	> 100 µM	> 100 µM
CCOC(=O)Nc1ccc(S(=O)(=O)Nc2ccc(Br)cc2)cc1	97.8 µM	72 µM	> 100 µM	> 100 µM	> 100 µM	> 100 µM	68.4 µM	> 100 µM	> 100 µM	> 100 µM
CCOC(=O)c1cc(-c2ccc(OC)c(OC)c2)cn1C	> 10 µM	> 10 µM	> 10 µM	> 10 µM	> 10 µM	> 10 µM	> 10 µM	> 10 µM	> 10 µM	> 10 µM
NS(=O)(=O)c1ccc(CNC(=S)NC(=O)Nc2ccc(Cl)c(Cl)c2)cc1	33.2 µM	94 µM	27.9 µM	52.8 µM	> 100 µM	33.3 µM	53.4 µM	34.7 µM	52.8 µM	60.2 µM
C(=N\NC1=NCCCN1)/c1ccc(-c2cn3cc(/C=N/NC4=NCCCN4)ccc3n2)cc1	> 100 µM	> 100 µM	> 100 µM	> 100 µM	> 100 µM	> 100 µM	> 89 µM	> 100 µM	> 100 µM	> 100 µM
